Measurements as given in ChEMBL document CHEMBL3108776, “Discovery of Small Molecule RIP1 Kinase Inhibitors for the Treatment of Pathologies Associated with Necroptosis” (ACS Med Chem Lett, 2013).
≈ marks a conversion by molar mass, not a printed value.

Assays:
[1] = target: T1, Receptor-interacting serine/threonine-protein kinase 1 (Homo sapiens, UniProt Q13546); assay: Displacement of (14-(2-{[3-({2-{[4-(cyanomethyl)phenyl]amino}-6-[(5-cyclopropyl-1H-pyrazol-3-yl)amino]-4-pyrimidinyl}amino)propyl]amino}-2-oxoethyl)-16,16,18,18-tetramethyl-6,7,7a,8a,9,10,16,18-octahydrobenzo[2'',3'']indolizino[8'',7'':5',6']pyrano[3',2':3,4]pyrido[1,2-a]indol-5-ium-2-sulfonate from human N-terminal His-GST-TEV-fused RIP1 kinase domain (1 to 375) expressed in baculovirus infected insect Sf9 cells preincubated for 10 mins followed by fluorescent ligand addition measured after 15 mins by fluorescence polarization assay
T1 sequence (Q13546 whole entry): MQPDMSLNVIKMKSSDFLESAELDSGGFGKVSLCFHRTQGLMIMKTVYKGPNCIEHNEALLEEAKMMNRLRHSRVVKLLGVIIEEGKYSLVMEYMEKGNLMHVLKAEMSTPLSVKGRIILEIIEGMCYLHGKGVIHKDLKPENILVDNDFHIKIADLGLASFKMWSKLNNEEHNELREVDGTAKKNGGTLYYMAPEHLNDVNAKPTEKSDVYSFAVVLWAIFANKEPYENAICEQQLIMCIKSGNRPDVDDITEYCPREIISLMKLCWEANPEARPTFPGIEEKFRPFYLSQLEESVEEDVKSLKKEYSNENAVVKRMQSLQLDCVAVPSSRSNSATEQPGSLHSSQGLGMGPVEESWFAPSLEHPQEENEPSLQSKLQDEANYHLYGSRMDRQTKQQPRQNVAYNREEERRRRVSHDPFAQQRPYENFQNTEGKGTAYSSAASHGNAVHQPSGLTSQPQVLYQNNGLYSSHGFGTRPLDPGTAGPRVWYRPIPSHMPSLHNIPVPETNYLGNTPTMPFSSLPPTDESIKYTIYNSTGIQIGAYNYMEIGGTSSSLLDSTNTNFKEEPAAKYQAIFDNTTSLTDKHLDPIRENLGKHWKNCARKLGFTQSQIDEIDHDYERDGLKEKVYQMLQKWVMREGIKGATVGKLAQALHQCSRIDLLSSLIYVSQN

[2] = target: T1, Receptor-interacting serine/threonine-protein kinase 1; assay: Inhibition of human N-terminal His-GST-TEV-fused RIP1 kinase domain (1 to 375) autophosphorylation expressed in baculovirus infected insect Sf9 cells after 4 hrs by ADP-Glo luminescence assay
[3] = tested on: Mus musculus; assay: Antiinflammatory activity in mouse TNFalpha-induced lethal shock model assessed as protection from body temperature loss at 2 mg/kg, po administered 15 mins prior to TNFalpha challenge measured over 7 hrs relative to TNFalpha-treated control; format: functional
[4] = tested on: Mus musculus; assay: Antiinflammatory activity in mouse TNFalpha-induced lethal shock model assessed as protection from body temperature loss at 20 mg/kg, po administered 15 mins prior to TNFalpha challenge measured over 7 hrs relative to TNFalpha-treated control; format: functional
[5] = Fraction unbound in mouse; format: ADME, organism-based; conditions: in vivo
[6] = Solubility of the compound; format: physicochemical
[7] = AUC in C57BL/6 mouse at 2 mg/kg, po measured at 4 hrs; format: ADME, organism-based; parameters: dose 2 mg/kg, route oral; conditions: plasma
[8] = Cmax in C57BL/6 mouse at 2 mg/kg, po measured at 4 hrs; format: ADME, organism-based; parameters: dose 2 mg/kg, route oral; conditions: in vivo
[9] = tested on: Mus musculus; assay: Antiinflammatory activity in po dosed mouse TNFalpha-induced lethal shock model assessed as protection from body temperature loss administered 15 mins prior to TNFalpha challenge measured over 7 hrs; format: functional, organism-based
[10] = tested on: Mus musculus; assay: Antiinflammatory activity in mouse TNFalpha-induced lethal shock model assessed as protection from body temperature loss at 0.2 mg/kg, po administered 15 mins prior to TNFalpha challenge measured over 7 hrs relative to TNFalpha-treated control; format: functional
[11] = Permeability of the compound; format: ADME; conditions: not told; read-out: permeability

O=C(Nc1cccc(-c2c[nH]c3ncc(-c4ccccc4)cc23)c1)Nc1cccc(C(F)(F)F)c1
IC50 [1]: 32 nM | IC50 [2]: 32 nM

Nc1ncnc2occ(-c3ccc(NC(=O)Nc4ccc(Cl)c(C(F)(F)F)c4)cc3)c12
IC50 [1]: 160 nM | IC50 [2]: 32 nM

O=C(Nc1cccc(-c2c[nH]c3ncc(-c4cn[nH]c4)cc23)c1)Nc1cc(C(F)(F)F)ccc1F
IC50 [1]: 16 nM | IC50 [2]: 6 nM

Nc1ncnc2occ(-c3ccc(NC(=O)Nc4ccc5ccccc5c4)cc3)c12
IC50 [1]: 100 nM

Nc1ncnc2occ(-c3ccc(NC(=O)Nc4cccc(Cl)c4)cc3)c12
IC50 [1]: 160 nM | IC50 [2]: 200 nM

Nc1nccc2c(-c3ccc(NC(=O)Nc4cccc(C(F)(F)F)c4F)cc3)cccc12
IC50 [1]: > 10000 nM | IC50 [2]: 4000 nM

CCc1cccc(NC(=O)Nc2ccc(-c3coc4ncnc(N)c34)cc2)c1
IC50 [1]: 25 nM | IC50 [2]: 10 nM

Nc1ncnc2occ(-c3ccc(NC(=O)Nc4cc(C(F)(F)F)cc(C(F)(F)F)c4)cc3)c12 [GW795486X]
IC50 [1]: 320 nM | IC50 [2]: 32 nM

O=C(Nc1cccc(-c2c[nH]c3ncc(-c4cccnc4)cc23)c1)Nc1cc(C(F)(F)F)ccc1F
IC50 [1]: 7.9 nM | IC50 [2]: 4 nM

O=C(Nc1cccc(-c2c[nH]c3ncc(-c4ccccc4)cc23)c1)Nc1cccc([N+](=O)[O-])c1
IC50 [1]: 16 nM | IC50 [2]: 16 nM

Nc1nccc2c(-c3ccc(NC(=O)Nc4ccc(Cl)c(C(F)(F)F)c4)cc3)cccc12
IC50 [1]: 40 nM | IC50 [2]: 160 nM

Nc1ncnc2occ(-c3ccc(NC(=O)Nc4cc(C(F)(F)F)ccc4Cl)cc3)c12
IC50 [1]: > 10000 nM | IC50 [2]: 2500 nM

Nc1ccc(-c2cnc3[nH]cc(-c4cccc(NC(=O)Nc5cc(C(F)(F)F)ccc5F)c4)c3c2)cc1
IC50 [1]: 32 nM | IC50 [2]: 50 nM

Nc1ncnc2occ(-c3ccc(NC(=O)Nc4cccc(C(F)(F)F)c4)cc3)c12 [GW795493X]
IC50 [1]: 20 nM | IC50 [2]: 10 nM

Nc1ncnc2occ(-c3ccc(NC(=O)Nc4cc(C(F)(F)F)ccc4F)cc3)c12 [GW770249X]
Activity [3]: 22% | Activity [4]: 77% | Fu [5]: 0.04% | solubility [6]: 13 µM (≈ 5.61 µg/mL) | AUC at 4 h [7]: 14000 ng·h/mL | Cmax [8]: 1100 ng/mL | Activity [9]: Dose-dependent effect | Activity [10]: 15% | Papp [11]: 21 ×10⁻⁶ cm/s

O=C(Nc1ccccc1)Nc1cccc(-c2c[nH]c3ncc(-c4ccccc4)cc23)c1
IC50 [1]: 1300 nM | IC50 [2]: 400 nM

Nc1nccc2c(-c3ccc(NC(=O)Nc4ccc(F)c(C(F)(F)F)c4)cc3)cccc12
IC50 [1]: 320 nM | IC50 [2]: 10 nM

CCS(=O)(=O)c1ccc(-c2cnc3[nH]cc(-c4cccc(NC(=O)Nc5cc(C(F)(F)F)ccc5F)c4)c3c2)cc1
IC50 [1]: 3.2 nM | IC50 [2]: 10 nM

Nc1ncnc2occ(-c3ccc(NC(=O)Nc4ccc(F)c(C(F)(F)F)c4)cc3)c12
IC50 [1]: 160 nM | IC50 [2]: 500 nM

CC(=O)c1cccc(NC(=O)Nc2cccc(-c3c[nH]c4ncc(-c5ccccc5)cc34)c2)c1
IC50 [1]: 13 nM | IC50 [2]: 10 nM

O=C(Nc1cccc(-c2c[nH]c3ncc(-c4ccccc4)cc23)c1)Nc1cc(C(F)(F)F)ccc1F
IC50 [1]: 200 nM | IC50 [2]: 80 nM

Nc1nccc2c(-c3ccc(NC(=O)Nc4cccc(C(F)(F)F)c4)cc3)cccc12
IC50 [1]: 20 nM | IC50 [2]: 25 nM

NC(=O)c1cccc(-c2cnc3[nH]cc(-c4cccc(NC(=O)Nc5cc(C(F)(F)F)ccc5F)c4)c3c2)c1
IC50 [1]: 16 nM | IC50 [2]: 10 nM

CC(C)(C)c1cc(NC(=O)Nc2ccc(-c3coc4ncnc(N)c34)cc2)no1
IC50 [1]: 32 nM | IC50 [2]: 16 nM

Nc1nccc2c(-c3ccc(NC(=O)Nc4cc(F)cc(C(F)(F)F)c4)cc3)cccc12
IC50 [1]: 160 nM | IC50 [2]: 25 nM

O=C(Nc1cccc(-c2c[nH]c3ncc(-c4ccccc4)cc23)c1)NC1CCCC1
IC50 [1]: 2000 nM | IC50 [2]: 500 nM

COc1cccc(NC(=O)Nc2cccc(-c3c[nH]c4ncc(-c5ccccc5)cc34)c2)c1
IC50 [1]: 32 nM | IC50 [2]: 6.3 nM

Nc1nccc2c(-c3ccc(NC(=O)Nc4cc(C(F)(F)F)ccc4Cl)cc3)cccc12
IC50 [1]: 3200 nM | IC50 [2]: 630 nM

Nc1ncnc2occ(-c3ccc(NC(=O)Nc4cc(F)cc(C(F)(F)F)c4)cc3)c12
IC50 [1]: 130 nM | IC50 [2]: 63 nM

Nc1ncnc2occ(-c3ccc(NC(=O)Nc4cccc(C(F)(F)F)c4F)cc3)c12
IC50 [1]: 250 nM | IC50 [2]: 200 nM

Nc1nccc2c(-c3ccc(NC(=O)Nc4cc(C(F)(F)F)ccc4F)cc3)cccc12
IC50 [1]: 13 nM | IC50 [2]: 130 nM

CS(=O)(=O)c1cccc(-c2cnc3[nH]cc(-c4cccc(NC(=O)Nc5cc(C(F)(F)F)ccc5F)c4)c3c2)c1
IC50 [1]: 63 nM | IC50 [2]: 10 nM
